Results reported in ChEMBL document CHEMBL4033749, “Synthesis and biological evaluation of 5-fatty-acylamido-1, 3, 4-thiadiazole-2-thioglycosides” (Bioorg Med Chem Lett, 2017).
pIC50: −log10 of the molar value.

What was measured:
[1] = test system: Pseudomonas aeruginosa; test: Antibacterial activity Pseudomonas aeruginosa MTCC 1688 by agar well method; format: functional
[2] = test system: Escherichia coli; test: Antibacterial activity Escherichia coli MTCC 443 by agar well method; format: functional
[3] = test system: DU-145; test: Cytotoxicity against human DU145 cells incubated for 24 hrs by MTT asasy; format: functional, cell-based; details: du-145
[4] = test system: Staphylococcus aureus; test: Antibacterial activity Staphylococcus aureus MTCC 96 by agar well method; format: functional
[5] = test system: SK-OV-3; test: Cytotoxicity against human SKOV3 cells incubated for 24 hrs by MTT asasy; format: functional, cell-based; details: sk-ov-3
[6] = test system: Bacillus subtilis; test: Antibacterial activity Bacillus subtilis MTCC 441 by agar well method; format: functional
[7] = test system: Klebsiella pneumoniae; test: Antibacterial activity Klebsiella pneumoniae MTCC 618 by agar well method; format: functional
[8] = test system: HeLa; test: Cytotoxicity against human HeLa cells incubated for 24 hrs by MTT asasy; format: functional, cell-based; details: Homo sapiens, HeLa, 24 h; read-out: IC50
[9] = test system: MDA-MB-231; test: Cytotoxicity against human MDA-MB-231 cells incubated for 24 hrs by MTT asasy; format: functional, cell-based; details: Homo sapiens, MDA-MB-231, 24 h; read-out: IC50
[10] = test system: CHO-K1; test: Cytotoxicity against CHOK1 cells incubated for 24 hrs by MTT asasy; format: cell-based, Cricetulus griseus; details: cho-k1
[11] = test system: Staphylococcus epidermidis; test: Antibacterial activity Staphylococcus epidermidis MTCC 9041 by agar well method; format: functional

MIC [1]: > 150 µg/mL
MIC [2]: > 150 µg/mL
MIC [4]: > 150 µg/mL
MIC [6]: > 150 µg/mL
MIC [7]: > 150 µg/mL
MIC [11]: > 150 µg/mL
Compound: CCCCCCCC/C=C\CCCCCCCCCCCC(=O)Nc1nnc(S[C@@H]2O[C@H](CO)[C@H](O)[C@H](O)[C@H]2O)s1
IC50 [3]: Not Active
IC50 [5]: Not Active
pIC50 [8]: 4.87
pIC50 [9]: 4.15
IC50 [10]: Not Active
